Patent publication US20230081426A1, “COMPOUNDS AND METHODS FOR KRAS MODULATION AND INDICATIONS THEREFOR” (Plexxikon Inc., priority 2020, published 2023)

What was measured:
[1] = target: T1, G12D-mutant human KRAS (amino acid residues 1-188) (Homo sapiens, UniProt P01116, G12D); test: KRAS Binding Disruption Assay (AlphaScreen; biotinylated KRpep-2d analogue or RAF1-RBD), G12D; conditions: KRAS G12D; geometric mean; read-out: KRAS GMean IC50 (uM) MUTATION: G12D
T1 construct: G12D or G12C-mutant human KRAS (amino acid residues 1-188) with FLAG tag; made in house; host or cells: E. coli
In short: (§1)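 Mutant KRAS (5-20 nM) incubated 1 h at 25° C with test compound and 5-20 nM biotinylated KRpep-2d analogue or RAF1-RBD in 20 mM HEPES pH 7.5, 100 mM NaCl, 5 mM MgCl2, 0.01% Tween-20, 0.01% BSA.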

[2] = target: T2, G12V-mutant human KRAS (amino acid residues 1-188) (Homo sapiens, UniProt P01116, G12V); test: KRAS Binding Competition Assay (AlphaScreen; biotinylated KRpep-2d analogue), G12V; conditions: geometric mean, read-out: KRAS GMean IC50 (uM) MUTATION: G12V
T2 construct: G12V-mutant human KRAS (amino acid residues 1-188) with FLAG tag was purified from E. coli; made in house; host or cells: E. coli

[3] = target: T3, G12C-mutant human KRAS (amino acid residues 1-188) (Homo sapiens, UniProt P01116, G12C); test: KRAS Binding Disruption Assay (AlphaScreen; biotinylated KRpep-2d analogue or RAF1-RBD), G12C; conditions: geometric mean, read-out: KRAS GMean IC50 (uM) MUTATION: G12C
T3 construct: G12D or G12C-mutant human KRAS (amino acid residues 1-188) with FLAG tag; made in house; host or cells: E. coli
In short: as §1

Measured: IC50

O=C(CCCn1ccnc1)N1[C@@H]2CC[C@H]1CN(c1nc(OCC34CCCN3CCC4)nc3c(F)c(-c4cc(O)cc5ccccc45)ccc13)C2 [P-0351, 1-((1R,5S)-3-(8-fluoro-7-(3-hydroxynaphthalen-1-yl)-2-((tetrahydro-1H-pyrrolizin-7a(5H)-yl)methoxy)quinazolin-4-yl)-3,8-diazabicyclo[3.2.1]octan-8-yl)-4-(1H-imidazol-1-yl)butan-1-one]
0.0001 to 10 µM: all assays above

NS(=O)(=O)CC(=O)N1[C@@H]2CC[C@H]1CN(c1nc(OCC34CCCN3CCC4)nc3c(F)c(-c4cc(O)cc5ccccc45)ccc13)C2 [P-0352, 2-((1R,5S)-3-(8-fluoro-7-(3-hydroxynaphthalen-1-yl)-2-((tetrahydro-1H-pyrrolizin-7a(5H)-yl)methoxy)quinazolin-4-yl)-3,8-diazabicyclo[3.2.1]octan-8-yl)-2-oxoethane-1-sulfonamide]
0.0001 to 10 µM: all assays above

N#CCC(=O)N1[C@@H]2CC[C@H]1CN(c1nc(OCC34CCCN3CCC4)nc3c(F)c(-c4cc(O)cc5ccccc45)ccc13)C2 [P-0354, 3-((1R,5S)-3-(8-fluoro-7-(3-hydroxynaphthalen-1-yl)-2-((tetrahydro-1H-pyrrolizin-7a(5H)-yl)methoxy)quinazolin-4-yl)-3,8-diazabicyclo[3.2.1]octan-8-yl)-3-oxopropanenitrile]
0.0001 to 10 µM: all assays above

O=C1CC(CC(=O)N2[C@@H]3CC[C@H]2CN(c2nc(OCC45CCCN4CCC5)nc4c(F)c(-c5cc(O)cc6ccccc56)ccc24)C3)C(=O)N1 (stereo partly drawn) [P-0356, 3-(2-((1R,5S)-3-(8-fluoro-7-(3-hydroxynaphthalen-1-yl)-2-((tetrahydro-1H-pyrrolizin-7a(5H)-yl)methoxy)quinazolin-4-yl)-3,8-diazabicyclo[3.2.1]octan-8-yl)-2-oxoethyl)pyrrolidine-2,5-dione]
0.0001 to 10 µM: all assays above

CN1CCC[C@H]1COc1nc(N2CC3COCC(C2)N3)c2cc(Cl)c(-c3cc(O)cc4cccc(Cl)c34)c(F)c2n1 [P-0365, 4-(4-(3-oxa-7,9-diazabicyclo[3.3.1]nonan-7-yl)-6-chloro-8-fluoro-2-(((S)-1-methylpyrrolidin-2-yl)methoxy)quinazolin-7-yl)-5-chloronaphthalen-2-ol]
0.0001 to 10 µM: all assays above

O=C1NC(=O)C(CC(=O)N2[C@@H]3CC[C@H]2CN(c2nc(OCC45CCCN4CCC5)nc4c(F)c(-c5cc(O)cc6ccccc56)ccc24)C3)N1 (stereo partly drawn) [P-0366]
0.0001 to 10 µM: all assays above

O=C1NC(=O)C(CCC(=O)N2[C@@H]3CC[C@H]2CN(c2nc(OCC45CCCN4CCC5)nc4c(F)c(-c5cc(O)cc6ccccc56)ccc24)C3)N1 (stereo partly drawn) [P-0375, 5-(3-((1R,5S)-3-(8-fluoro-7-(3-hydroxynaphthalen-1-yl)-2-((tetrahydro-1H-pyrrolizin-7a(5H)-yl)methoxy)quinazolin-4-yl)-3,8-diazabicyclo[3.2.1]octan-8-yl)-3-oxopropyl)imidazolidine-2,4-dione]
0.0001 to 10 µM: all assays above

NC1=NC(=O)C(CC(=O)N2[C@@H]3CC[C@H]2CN(c2nc(OCC45CCCN4CCC5)nc4c(F)c(-c5cc(O)cc6ccccc56)ccc24)C3)S1 (stereo partly drawn) [P-0384, 2-amino-5-(2-((1R,5S)-3-(8-fluoro-7-(3-hydroxynaphthalen-1-yl)-2-((tetrahydro-1H-pyrrolizin-7a(5H)-yl)methoxy)quinazolin-4-yl)-3,8-diazabicyclo[3.2.1]octan-8-yl)-2-oxoethyl)thiazol-4 (5H)-one]
0.0001 to 10 µM: all assays above

O=C(Cn1ccnc1)N1[C@@H]2CC[C@H]1CN(c1nc(OCC34CCCN3CCC4)nc3c(F)c(-c4cc(O)cc5ccccc45)ccc13)C2 [P-0387, 1-((1R,5S)-3-(8-fluoro-7-(3-hydroxynaphthalen-1-yl)-2-((tetrahydro-1H-pyrrolizin-7a(5H)-yl)methoxy)quinazolin-4-yl)-3,8-diazabicyclo[3.2.1]octan-8-yl)-2-(1H-imidazol-1-yl)ethan-1-one]
0.0001 to 10 µM: all assays above

CN1CCC[C@H]1COc1nc(N2C[C@H]3CC[C@@H](C2)N3C(=O)C(N)=O)c2ccc(-c3cc(O)cc4ccccc34)c(F)c2n1 [P-0397, 2-((1R,5S)-3-(8-fluoro-7-(3-hydroxynaphthalen-1-yl)-2-(((S)-1-methylpyrrolidin-2-yl)methoxy)quinazolin-4-yl)-3,8-diazabicyclo[3.2.1]octan-8-yl)-2-oxoacetamide]
0.0001 to 10 µM: all assays above

NS(=O)(=O)NCC(=O)N1[C@@H]2CC[C@H]1CN(c1nc(OCC34CCCN3CCC4)nc3c(F)c(-c4cc(O)cc5ccccc45)ccc13)C2 [P-0408, N-(2-((1R,5S)-3-(8-fluoro-7-(3-hydroxynaphthalen-1-yl)-2-((tetrahydro-1H-pyrrolizin-7a(5H)-yl)methoxy)quinazolin-4-yl)-3,8-diazabicyclo[3.2.1]octan-8-yl)-2-oxoethyl)aminosulfonamide]
0.0001 to 10 µM: all assays above

N#CC1(CC(=O)N2[C@@H]3CC[C@H]2CN(c2nc(OCC45CCCN4CCC5)nc4c(F)c(-c5cc(O)cc6ccccc56)ccc24)C3)CC1 [P-0409, 1-(2-((1R,5S)-3-(8-fluoro-7-(3-hydroxynaphthalen-1-yl)-2-((tetrahydro-1H-pyrrolizin-7a(5H)-yl)methoxy)quinazolin-4-yl)-3,8-diazabicyclo[3.2.1]octan-8-yl)-2-oxoethyl)cyclopropane-1-carbonitrile]
0.0001 to 10 µM: all assays above

O=C1N=C(S)SC1CC(=O)N1[C@@H]2CC[C@H]1CN(c1nc(OCC34CCCN3CCC4)nc3c(F)c(-c4cc(O)cc5ccccc45)ccc13)C2 (stereo partly drawn) [P-0411, 5-(2-((1R,5S)-3-(8-fluoro-7-(3-hydroxynaphthalen-1-yl)-2-((tetrahydro-1H-pyrrolizin-7a(5H)-yl)methoxy)quinazolin-4-yl)-3,8-diazabicyclo[3.2.1]octan-8-yl)-2-oxoethyl)-2-mercaptothiazol-4(5H)-one]
0.0001 to 10 µM: all assays above

CN1C(=O)SC(CC(=O)N2[C@@H]3CC[C@H]2CN(c2nc(OCC45CCCN4CCC5)nc4c(F)c(-c5cc(O)cc6ccccc56)ccc24)C3)C1=O (stereo partly drawn) [P-0412, 5-(2-((1R,5S)-3-(8-fluoro-7-(3-hydroxynaphthalen-1-yl)-2-((tetrahydro-1H-pyrrolizin-7a(5H)-yl)methoxy)quinazolin-4-yl)-3,8-diazabicyclo[3.2.1]octan-8-yl)-2-oxoethyl)-3-methylthiazolidine-2,4-dione]
0.0001 to 10 µM: all assays above

O=C1N[C@@H](CC(=O)N2[C@@H]3CC[C@H]2CN(c2nc(OCC45CCCN4CCC5)nc4c(F)c(-c5cc(O)cc6ccccc56)ccc24)C3)CO1 [P-0414, (S)-4-(2-((1R,5S)-3-(8-fluoro-7-(3-hydroxynaphthalen-1-yl)-2-((tetrahydro-1H-pyrrolizin-7a(5H)-yl)methoxy)quinazolin-4-yl)-3,8-diazabicyclo[3.2.1]octan-8-yl)-2-oxoethyl)oxazolidin-2-one]
0.0001 to 10 µM: all assays above

O=C1NC(=O)[C@H](CC(=O)N2[C@@H]3CC[C@H]2CN(c2nc(OCC45CCCN4CCC5)nc4c(F)c(-c5cc(O)cc6ccccc56)ccc24)C3)N1 [P-0415, (S)-5-(2-((1R,5S)-3-(8-fluoro-7-(3-hydroxynaphthalen-1-yl)-2-((tetrahydro-1H-pyrrolizin-7a(5H)-yl)methoxy)quinazolin-4-yl)-3,8-diazabicyclo[3.2.1]octan-8-yl)-2-oxoethyl)imidazolidine-2,4-dione]
0.0001 to 10 µM: all assays above

O=C1NC(=O)/C(=C/C(=O)N2[C@@H]3CC[C@H]2CN(c2nc(OCC45CCCN4CCC5)nc4c(F)c(-c5cc(O)cc6ccccc56)ccc24)C3)S1 [P-0443, (Z)-5-(2-((1R,5S)-3-(8-fluoro-7-(3-hydroxynaphthalen-1-yl)-2-((tetrahydro-1H-pyrrolizin-7a(5H)-yl)methoxy)quinazolin-4-yl)-3,8-diazabicyclo[3.2.1]octan-8-yl)-2-oxoethylidene)thiazolidine-2,4-dione]
0.0001 to 10 µM: all assays above

CN1CCC[C@H]1COc1nc(N2C[C@H]3CC[C@@H](C2)N3C(=O)CC2SC(=O)NC2=O)c2cc(F)c(-c3cc(O)cc4ccccc34)c(F)c2n1 (stereo partly drawn) [P-0463, 5-(2-((1R,5S)-3-(6,8-difluoro-7-(3-hydroxynaphthalen-1-yl)-2-(((S)-1-methylpyrrolidin-2-yl)methoxy)quinazolin-4-yl)-3,8-diazabicyclo[3.2.1]octan-8-yl)-2-oxoethyl)thiazolidine-2,4-dione]
0.0001 to 10 µM: all assays above

C=CC(=O)N1[C@@H]2CC[C@H]1CN(c1nc(OC[C@@]34CCCN3C[C@H](F)C4)nc3c(F)c(-c4cc(O)cc5cccc(Cl)c45)ccc13)C2 [P-0502, 1-((1R,5S)-3-(7-(8-chloro-3-hydroxynaphthalen-1-yl)-8-fluoro-2-(((2R,7aS)-2-fluorotetrahydro-1H-pyrrolizin-7a(5H)-yl)methoxy)quinazolin-4-yl)-3,8-diazabicyclo[3.2.1]octan-8-yl)prop-2-en-1-one]
0.0001 to 10 µM: all assays above
